Assay results reported in EP0479888B1, “IMPROVED BUILDER-CONTAINING AQUEOUS CLEANER/DEGREASER MICROEMULSION COMPOSITIONS” (BUCKEYE INTERNATIONAL, INC., priority 1989, dated 1991).

Details: water

## CCCCOC(C)=O [n-butyl acetate]
  aqueous ambient temperature solubility: 0.7 wt.%
